Laboratory results reported in PMC5612938, “A multiple biomarker assay for quality assessment of botanical drugs using a versatile microfluidic chip” (Scientific Reports, 2017).

What was measured:
[1] = molecular target: T1, Thrombin (from human plasma) (Homo sapiens, UniProt P00734); experiment: on-chip thrombin inhibition assay (S-2238 hydrolysis, absorbance 405 nm); format: biochemical; details: for thrombin inhibition (in words): at tested concentrations
T1 construct: Thrombin (from human plasma); purchased Sigma-Aldrich; host or cells: human plasma
Procedure: To enhance the performance of the on-chip assay, experimental parameters such as concentrations of enzymes and substrates, substrate reaction time, and incubation time of samples and enzymes were stepwise optimized. The activity of thrombin was determined by measuring the hydrolysis of chromogenic substrate S-2238 (HD-Phe-Pip-Arg-pNA) at 405 nm. As depicted in Fig. 2a, the absorbance increased rapidly along with the elevated concentrations of thrombin, while it reached a plateau at 0.5 U/mL. […] Moreover, it was clear from Fig. 2d that the maximum inhibitory effect of QSYQ sample (I1 of Table 1 in this assay) on thrombin was observed after 60 min of incubation. Therefore, to achieve favorable response and prevent signal saturation, optimal assay conditions for thrombin were determined to be 0.2 U/mL, 0.31 mM, 30 min and 60 min for the final concentrations of thrombin and S-2238, substrate reaction time and incubation time, respectively. […] In this assay, the concentrations of ACE and FAPGG were finally set at 0.027 U/mL and 0.72 mM, where the background value was lower and the reaction time was relatively shorter (30 min).
The optimized protocol was first applied to assess the quality of 11 batches of QSYQ intermediates (Table 1). Enzyme inhibition (in percentages) was employed as an indicator of drug quality and calculated according to the following equations: thrombin inhibition (%) = [1 − (AQSYQ/Ablank)] × 100; ACE inhibition (%) = [1 − (ΔAQSYQ/ΔAblank)] × 100; where AQSYQ and Ablank were the absorbance of the test sample and the blank sample after the enzymatic reaction (the background value was subtracted), and ΔAQSYQ and ΔAblank were the absorbance decrease between 0 min and 30 min of the samples. A scatter plot was generated to display the inhibition result of thrombin and ACE simultaneously. […] Moreover, artificial abnormal samples I6, I7 and I8, each with one abnormal (pre-extracted) herb, presented relatively lower inhibitions compared with I1.
Thrombin (from human plasma), ACE (from rabbit lung), FAPGG and captopril were purchased from Sigma-Aldrich (St. Louis, USA). S-2238 was obtained from Aglyco (Beijing, China). AEBSF-HCl was purchased from Selleckchem (Houston, USA). Trizma base (Tris) was obtained from Sangon Biotech (Shanghai, China) and dimethyl sulfoxide (DMSO) from J&K Scientific (Beijing, China). All other chemicals were purchased from Sinopharm Chemical (Shanghai, China) unless otherwise indicated. 0.2 M Phosphate buffer (PB, pH 6.5), and 50 mM Tris-HCl buffer (200 mM NaCl, pH 8.3) were prepared as assay buffers for thrombin and ACE, respectively.
MBs (10 mg/mL) were diluted 10 times in PB or Tris-HCl buffer, and 10 μL of the diluted MBs (1 mg/mL) were injected into one channel of the chip using a syringe infusion pump (Harvard Apparatus, USA) and retained by an external magnet. Then, 10 μL of thrombin or ACE solution was added and incubated with MBs for two hours at room temperature to form enzyme-MB complexes. The magnet was manually controlled to move MBs back and forth to enhance the ratio of reaction. Subsequently, MBs were washed twice in assay buffer and magnetically transferred to the other channel through the fluidic bridge, whose opening and closing was controlled by a pneumatic valve. Next, 10 μL of sample solutions of tested drug and 10 μL of enzymatic substrate were sequentially infused to the channel by the pump and incubated with the enzyme. When the enzymatic reaction was finished, the MBs were retained in the channel, and air was injected into the channel from the inlet using a syringe to push all the reacted solution to a 384-well plate. The absorbance of the solution was then monitored at 405 nm (for S-2238) or 340 nm (for FAPGG) using an Infinite F200 spectrophotometer (Tecan, Männedorf, Switzerland). Moreover, after detection, the reaction channel was washed three times by assay buffer to remove unbound constituents. […]

[2] = molecular target: T1, Thrombin (from human plasma); experiment: on-chip affinity screening, binding degree by LC-MS peak area vs protein-free control (thrombin); details: for thrombin; [(As − Ac)/As] × 100, sample vs protein-free control, EIC peak area
Description: In addition to quality assessment, the microfluidic chip can also function as “affinity chromatography” to identify bioactive constituents from botanical drugs in a convenient and efficient manner. After the bioassay, the bound phytochemicals were dissociated from the enzymes and accurately identified by LC-MS. The material used for the chambers in microfluidic system, polydimethylsiloxane (PDMS), is apt to adsorb small molecules nonspecifically, thus a protein-free control was applied to reflect the degree of nonspecific binding of compounds to the chip. Peak areas were obtained from the extracted ion chromatography (EIC) in an ion-trap mass spectrometry (IT-MS), and binding degree (binding degree % = [(As − Ac)/As] × 100, where As and Ac were the peak area in the sample and control, respectively) was calculated to indicate binding specificity. […] All these peaks were unambiguously confirmed via comparisons with chemical standards in terms of retention time and mass spectra (Table 2), and five thrombin inhibitors (danshensu, salvianolic acid B, salvianolic acid C, rosmarinic acid and ginsenoside Rg1) and six ACE inhibitors (astragaloside IV, ononin, formononetin, calycosin, danshensu and salvianolic acid B) were preliminarily identified. […] Enzyme inhibition assays of these hit compounds were then performed to verify the screening results. […] Compounds showing an inhibition rate over 70% were subjected to IC50 measurement.
MBs (10 mg/mL) were diluted 10 times in PB or Tris-HCl buffer, and 10 μL of the diluted MBs (1 mg/mL) were injected into one channel of the chip using a syringe infusion pump (Harvard Apparatus, USA) and retained by an external magnet. Then, 10 μL of thrombin or ACE solution was added and incubated with MBs for two hours at room temperature to form enzyme-MB complexes. The magnet was manually controlled to move MBs back and forth to enhance the ratio of reaction. Subsequently, MBs were washed twice in assay buffer and magnetically transferred to the other channel through the fluidic bridge, whose opening and closing was controlled by a pneumatic valve. Next, 10 μL of sample solutions of tested drug and 10 μL of enzymatic substrate were sequentially infused to the channel by the pump and incubated with the enzyme. When the enzymatic reaction was finished, the MBs were retained in the channel, and air was injected into the channel from the inlet using a syringe to push all the reacted solution to a 384-well plate. The absorbance of the solution was then monitored at 405 nm (for S-2238) or 340 nm (for FAPGG) using an Infinite F200 spectrophotometer (Tecan, Männedorf, Switzerland). Moreover, after detection, the reaction channel was washed three times by assay buffer to remove unbound constituents. 20 μL of 80% aqueous methanol was then injected and incubated with MBs for one hour to dissociate the bound constituents. The resulting solutions of replicates were combined, evaporated by a centrifugal evaporator, reconstituted in 80% aqueous methanol, centrifuged at 10,000 rpm for 10 min, and analyzed by LC-MS for chemical identification.
An Agilent 1100 HPLC system (Agilent Technologies, Waldbronn, Germany) coupled with an LCQ Deca XP^plus IT-MS (Thermo Finnigan, San Jose, CA, USA) equipped with an electrospray ionization (ESI) interface was employed for structure elucidation of the bounded constituents. […]

Row | inhibition rate ([1]; for thrombin, maximum inhibition rate observed in the assay) | Compound | thrombin inhibition (in words) [1] | IC50 ([1]; for thrombin) | Binding degree (%) [2]
1 |  | O=C(/C=C/c1ccc(O)c2c1[C@H](C(=O)O[C@H](Cc1ccc(O)c(O)c1)C(=O)O)[C@@H](c1ccc(O)c(O)c1)O2)O[C@H](Cc1ccc(O)c(O)c1)C(=O)O [Salvianolic acid B] | good thrombin inhibitions | 81.9 µM | 34.9%
2 | 66.9% | O=C(O)C(O)Cc1ccc(O)c(O)c1 (stereo not drawn) [Danshensu] | good thrombin inhibitions |  | 50.9%
